Measured values as given in a melting point compilation (Tetko et al.).

Structure (SMILES)	melting point
O=[N+]([O-])c1c[nH]cn1	303 °C
CCN1CCc2c3n(c4ccccc24)C(C(=O)OC)=CCC31 (stereo not given)	120 °C
O=C(CO)c1ccc(Br)cc1	137 to 142 °C
O=C(S)c1ccccc1	24 °C
CCCCCCCCCCCCCC(O)CC (stereo not given)	50 °C
O=C(O)C1=CC(Cl)=C(Cl)[C@H](O)[C@@H]1O	195 to 200 °C
O=C(O)c1ccc2c(c1)OCCOCCOCCOCCO2	188 to 191 °C
CC(C=CC=C(C)C=CC1=C(C)CC(O)CC1(C)C)=CC=CC=C(C)C=CC=C(C)C=CC1=C(C)CC(O)CC1(C)C (stereo not given)	216 °C
Cc1cccc2c1CC(C(=O)O)N(C(=O)OC(C)(C)C)C2 (racemic)	142 to 144 °C
CCNC(=O)C1CC(C)CCC1C(C)C (stereo not given)	88 °C
COc1cc(C(N)=O)cc(Cl)n1	186 °C
O=C(O)C1CCC(c2ccccc2)CC1C(=O)O (stereo not given)	185 to 190 °C
CSc1nc(N)cc(Cl)n1	130 to 134 °C
O=c1c2ccccc2[nH]c(=S)n1-c1ccc(F)cc1	337 to 339 °C
C=C1C(=O)OC2C1CCC(C)C1C=CC(=O)C12C (stereo not given)	146 °C
Nc1c(Br)cc(Br)cc1C(=O)c1ccccc1	98 °C
O=Cc1ccc(-c2ccc(Br)cc2)o1	150 to 155 °C
OC1Cc2cccc(F)c21 (stereo not given)	56 °C
CC(C)(C#N)N=NC(C)(C)C#N	102 °C
c1ccc2sc(SN3CCOCC3)nc2c1	85 °C
Cc1cc(/C=C/c2ccccc2N)c(N)cc1N	151 °C
CC1CCC(C(C)C)C(OC(=O)c2ccc3ccccc3c2)C1 (stereo not given)	76 °C
CC(=O)OC1CCC2C3CCC4=CC(O)CCC4(C)C3CCC12C (stereo not given)	96 °C

Structure (SMILES)	melting point
OCC(F)(F)C(F)(F)CO	85 to 87 °C
CC1=NN(c2cccc(Cl)c2)C(=O)C1	125 to 128 °C
CC(C)C(=O)OCCCc1ccccc1	-60 °C
CC1=C[C@H](O)[C@H]2C[C@@H]1C2(C)C	70.8 °C
CCOC(=O)C(Nc1cccc(NC(C(=O)OCC)C(=O)OCC)c1)C(=O)OCC	79 °C
Brc1cc(Br)c(Br)c(Br)c1Br	160 °C
CC1CC(=O)c2cc(Cl)ccc2S1 (stereo not given)	64 to 65 °C
O=C(Br)c1ccccc1	-24 °C
COc1c(C(C)(C)C(C)C)c(OC(C)=O)c(OC(C)=O)c2ccccc12	145 °C
COc1cc(OC)nc(NC(=O)NS(=O)(=O)N(C)S(C)(=O)=O)n1	179 °C
NC(CS(=O)(=O)c1ccccc1)=NO	162 °C
O=C(c1ccc(Cl)cc1)c1noc(-c2ccc(Cl)cc2)c1S(=O)(=O)c1ccccc1	147 °C
c1cncc(-c2nc3ccccc3[nH]2)c1	257 °C
O=C1CCC(=O)N1CCO	60 °C
ICCCCCCI	9.5 °C
CCOc1ccc2[nH]c(S)nc2c1	249 °C
O=C(Cl)c1cc(-c2ccccc2)on1	86 to 88 °C
CNS(=O)(=O)c1ccc(C)cc1	78.5 °C
N#Cc1cccc(Cn2c(=O)oc3ccccc32)c1	170 to 172 °C
O=Cc1ccc(N2CCCC2)nc1	89 to 90 °C
COc1ccc(NS(=O)(=O)c2ccc(N)cc2)nn1	182 °C
CCOCCC(OCC)OCC	53 °C
O=[N+]([O-])c1cc(S(=O)(=O)Nc2ccccc2)ccc1Nc1ccccc1	156 °C

Structure (SMILES)	melting point
CCCCc1ccc2ccccc2c1	-5 °C
CC1CCC(C(C)C)C(OC(=O)C(c2ccccc2)c2ccccc2)C1 (stereo not given)	53 °C
CC(=O)CC(c1ccco1)c1c(O)c2ccccc2oc1=O (stereo not given)	124 °C
[N-]=[N+]=Nc1ccc(Br)cc1	20 °C
CC(F)(F)C(=O)O	43 °C
O=C1[C@H]2CC3=C(CC=CC3)C[C@H]2C(=O)[C@H]2CC3=C(CC=CC3)C[C@@H]12	300 to 302 °C
FC(F)=C(Cl)Cl	-116 °C
CC(C)(C)OC(=O)C(Cl)(Cl)Cl	25.5 °C
CC(=O)c1ccc(C#Cc2ccccc2)cc1	101 °C
CC(C)(C)OC(=O)N[C@H](CC(=O)O)Cc1ccccc1	104 °C
COC(=O)c1c(C)c(Br)c(OC)c(Br)c1OC	60 °C
Cn1c(S)nnc1CNC(=O)OC(C)(C)C	168 to 169 °C
O=C1NN(c2ccccc2)C(=O)C1=C1SC=C(c2ccccc2)S1	288 to 290 °C
COc1cc(C)c2c(c1)CCC(=Cc1ccccc1)C2=O	96 to 97 °C
N#Cc1cc(F)ccc1Cl	84 °C
Clc1cc(Cl)c2cc(Cl)cc(Cl)c2c1	180 °C
Brc1cc2c(cc1Br)Oc1ccccc1O2	158 °C
NS(=O)(=O)c1cc2c(s1)C(O)CCS2=O (stereo not given)	190 °C
Cc1c(NC=C2C(=O)NN=C2c2c(O)c3ccccc3n(C)c2=O)c(=O)n(-c2ccccc2)n1C	175 °C
CC1=C(C(=O)OC(C)C)C(c2ccc3c(c2)OCO3)NC(=O)N1 (stereo not given)	186 °C
Clc1nc(Cl)c(Cl)c(Cl)n1	69 °C
Oc1cc(C(F)(F)F)nc2c(Cl)cccc12	139 °C
CCC(CO)(CO)[N+](=O)[O-]	57.5 °C

Structure (SMILES)	melting point
O=Cc1cc2cccnc2s1	142 to 143 °C
C#CC	-103 °C
CCNc1nc(Cl)nc(NC(C)(C)C)n1	178 °C
CCOC(=O)C(C#N)=NO	130 °C
CCOC(=O)CC(=O)CCl	-8 °C
O=C1CC(=P(c2ccccc2)(c2ccccc2)c2ccccc2)C(=O)O1	167 °C
O=C(O)c1cc(=O)c2ccccc2o1	260 °C
O=S1OCCO1	-11 °C
CC(=O)CCc1ccc(O)cc1	82 to 84 °C
CC(=O)N[C@@H](C)C(=O)N[C@@H](C)C(=O)N[C@@H](C)C(=O)O	248 °C
N#Cc1c(NC(=O)c2ccc(Cl)cc2Cl)sc2c1CCCC2	201 to 202 °C
O=C(O)c1c(O)cccc1O	160 to 165 °C
CC1=CC(O)c2ccccc21 (stereo not given)	69 °C
O=S(=O)(O)CCCNC1CCCCC1	324 °C
O=[N+]([O-])c1ccccc1C=NO	100 °C
CCN(C(=O)Oc1cccc(NC(=O)OC(C)C)c1)c1ccccc1	110 °C
O=Cc1ccc(O)c(C(=O)O)c1	250 °C
Sc1nccc(-c2ccc(Cl)cc2)n1	210 to 214 °C
O=C1Nc2ccccc2CCc2ccccc21	246 to 248 °C
N#CC1=C(N)N2C(=C(C#N)C1c1ccccc1)Sc1ccccc12 (stereo not given)	205 °C
COc1ccc(C(C)=O)c(OC)c1OC	15.8 °C
Cc1ccc2c(C)cccc2c1C	33.5 °C
CC(c1ccccc1)N1CC(C(=O)O)CC1=O (stereo not given)	210 to 213 °C

Structure (SMILES)	melting point
CC1(C)C(=O)N(Cl)C(=O)N1Br	164 °C
N#CCCSCCC#N	24 to 25 °C
Cc1ccc(CCl)c2ccccc12	58 to 60 °C
CC(=O)Nc1ccc(C(=O)O)cc1[N+](=O)[O-]	226 °C
CC(/C=N/NC(N)=O)=N\NC(N)=O	255 °C
O=S(=O)(c1ccc(O)cc1)c1ccc(O)cc1	248 °C
O=C1CN2CCOC2(c2ccccc2F)c2cc(Br)ccc2N1 (stereo not given)	185 °C
O=C(O)/C(=C/c1ccccc1F)c1ccccc1	169 °C
COc1ccc(-c2ccccc2)cc1NNC(=O)OC(C)C	122 °C
C[Si](C)(C)CCS(=O)(=O)c1ccccc1	50 to 53 °C
Nc1ccc(Cl)c(F)c1	60 °C
BrCc1ccccc1Br	31 °C
Cc1ncc(C=O)n1C	76 to 77 °C
O=C1CC(=O)CC(c2ccc(F)cc2)C1	174 to 178 °C
CC(C)(C)C1=CC(=NO)C=C(C(C)(C)C)C1=O	219 °C
CC(C)=NNC(=O)c1cc(C)on1	244 to 246 °C
c1ccc2c(c1)NC1(CCCC1)N2	190 °C
O=S(=O)(Cl)c1ccc(-c2ccccc2)s1	85 to 87 °C
CCOC(=O)c1cn[nH]c1NC(=O)Nc1cccc(Cl)c1	257 to 259 °C
O=C(O)C=CC(=O)C=CC(=O)O	300 °C
S=C=Nc1ccc2c(c1)OCO2	57 to 59 °C
N#Cc1c(Cl)c(Cl)c(Cl)c(C#N)c1Cl	252 °C
COc1ccc(C[C@H](N)C(=O)O)cc1	259 to 261 °C

Structure (SMILES)	melting point
O=C(/C=C/O)CCc1ccccc1	150 °C
CCCCCCCOc1ccc(O)cc1	61.5 °C
O=Cc1cc(Cl)ccc1[N+](=O)[O-]	75 to 77 °C
OC1(c2ccccc2)c2ccccc2Oc2ccccc21	158 to 162 °C
N#CC(=CN1CCOCC1)C(N)=O	173 to 177 °C
CC(NC(=O)COCCN1C(=O)c2ccccc2C1=O)[P+]([O-])(Oc1ccccc1)Oc1ccccc1 (stereo not given)	107 °C
CN1CSC(=S)N(C)C1	106 °C
COC(=O)CCCCC(=O)O	9 °C
Cc1cc(C2(c3cc(C)c(O)c(Br)c3C)OS(=O)(=O)c3ccccc32)c(C)c(Br)c1O	218 °C
Cc1ccc(Sc2ncccc2C(=O)O)cc1	218 to 221 °C
CCC(=O)OCC(C)C	-71.4 °C
O=C(O)CC(Br)C(=O)O (racemic)	160 to 166 °C
O=Cc1ccc2nccn2c1	152 °C
CC(C)(C)CCl	-20 °C
Cc1[nH]c2cc(C(F)(F)F)ccc2c1C(=O)N1CCCCC1	174 to 175 °C
COc1cc(Br)cc(F)c1F	35 °C
CCCCCCCCC(=O)OCC	-36.7 °C
S=C(Oc1ccccn1)Oc1ccccn1	96 to 99 °C
CC(C)(C)Oc1ccccc1	-24 °C
Cc1cc(C(=O)O)n(C(C)(C)C)n1	149 to 153 °C
